# Laboratory results from patent US11246961B2, “Engineered scaffolds for vascularized tissue repair” (The Regents of the University of California, priority 2016, dated 2022).
# “Also recorded” adds a separate entry of the source.
# Key:
# [1] = test system: HCAECs; assay: flow cytometry ligand-cell binding, HCAECs; set-up: species or system human; details: biotinylated ligand 1 μM, streptavidin-phycoerythrin
# Protocol: (§1) FIG. 10 presents flow cytometry data from an assay of binding affinity of LXW7 and GRGD (SEQ ID NO: 1) to different cell types. Tests included EPCs/ECs from different sources, including HECFCs (A), HCAECs (B), HMVECs (C), and THP-1 monocytes (D), Platelets (E), as well as K562 cells engineered to highly express αvβ3 (αvβ3-K562, F), and αIIbβ3 (αIIbβ3-K562, G). Cells were incubated with the LXW7-bio, GRGD-bio (SEQ ID NO: 1), or D-Biotin peptide and subsequently incubated with streptavidin-phycoerythrin. Flow cytometry analysis was performed to determine the binding affinity of the ligands. Samples treated with D-biotin were used as negative controls.
# (§2) LXW7-bio (1 μM) was incubated with 3×10^5 HECFCs, HCAECs, HMVECs, αvβ3-K562 and αIIbβ3-K562 cells and THP-1 monocytes and 1×10^8 platelets in binding buffer (HEPES containing 10% FBS) on ice for 30 minutes. The samples were washed three times with DPBS containing 1% FBS and incubated with 2 μg/ml of streptavidin-phycoerythrin on ice for 30 minutes and then washed with DPBS. Samples were analyzed on a BD Fortessa LSR Cell Analyzer and further data analysis and gating were performed using FlowJo software (Treestar, Inc.).
# [2] = test system: HMVECs; assay: on-bead whole cell binding assay, HMVECs; assay type: cell-based, human; details: 10 minutes, 30 minutes or 2 hours
# Description: (§3) Human coronary artery endothelial cells (HCAECs) were purchased from ATCC. Human cardiac microvascular endothelial cells (HMVECs) were purchased from Lonza. THP-1 monocytes were obtained from Dr. Pamela Lein (University of California, Davis). The myeloid leukemia K562 cells that have been transfected with human integrin αvβ3 gene (αvβ3-K562 cells) were provided by Dr. Yoshikazu Takada and the K562 cells transfected with human integrin αIIbβ3 gene (αIIb3-K562 cells) were provided Dr. Jennifer Cochran (Stanford University)
# (§4) HECFCs, HCAECs, HMVECs and THP-1 monocytes were cultured in their respective growth medium as described in Example 1. For cell bead-binding assay, 6×10^5 HECFCs, HCAECs, HMVECs or THP-1 monocytes in 2 mL of their respective culture medium were added to an ultra-low attachment 35-mm petri dish (Corning Incorporated) followed by resin beads (Lam et al. (1991) Nature 354:82). The dishes were incubated in a shaking incubator at 37° C., 5% CO2 for various time points at 40 rpm. For platelet bead-binding assay, the platelets isolated as described in Example 1 were added to an ultra-low attachment 35-mm petri dish and incubated with the resin beads in the shaking incubator as described for the cell-bead binding assy. Phase contrast images were taken at different time points using an Olympus IX81 microscope. […]
# [3] = test system: HECFCs; assay: flow cytometry ligand-cell binding, HECFCs; set-up: species or system human; details: biotinylated ligand 1 μM, streptavidin-phycoerythrin
# Protocol: as §1, §2
# [4] = target: T1, integrin αIIbβ3 (Homo sapiens, UniProt P05106+P08514); assay: flow cytometry ligand-cell binding, αIIbβ3-K562 cells; details: K562 cells highly expressing αIIbβ3
# T1 construct: expressed in transfected cells; host or cells: K562 myeloid leukemia cells (αIIbβ3-K562), provided by Dr. Jennifer Cochran (Stanford University)
# Protocol: as §1
# (§5) Human coronary artery endothelial cells (HCAECs) were purchased from ATCC. Human cardiac microvascular endothelial cells (HMVECs) were purchased from Lonza. THP-1 monocytes were obtained from Dr. Pamela Lein (University of California, Davis). […]
# as §2, with “The samples were washed three times with DPBS containing 1% FBS and incubated with 2 μg/ml of streptavidin-phycoerythrin on ice for 30 minutes and then washed with DPBS.” left out
# [5] = test system: platelets; assay: flow cytometry ligand-cell binding, platelets; details: biotinylated ligand 1 μM
# Protocol: as §1, §2
# [6] = test system: HCAECs; assay: MTS assay of EC proliferation on LXW7; assay type: cell-based, human; details: vs D-biotin treated surface; up to 5 days
# Protocol: The 96-well plates from Example 3 were treated with 1 μM Avidin solution for 1 hour at room temperature. Avidin coated wells were rinsed three times with DPBS and treated with LXW7-bio (1 μM), with D-biotin (1 μM) serving as the control. After 1 hour, the wells were washed three times with DPBS and blocked with 1% BSA for 1 hour. 3×10^3 viable HCAECs were seeded per well and cultured in EGM-2 media for 5 days. MTS assay was performed at each day as per the manufacturer instructions (Interchim) and analyzed on SpectraMax-3 plate reader (Molecular Devices).
# [7] = test system: THP-1 monocytes; assay: on-bead whole cell binding assay, THP-1 monocytes; assay type: cell-based; details: 10 minutes, 30 minutes or 2 hours
# Description: as §3, §4
# [8] = target: T2, integrin αvβ3 (Homo sapiens, UniProt P05106+P06756); assay: flow cytometry ligand-cell binding, αvβ3-K562 cells; details: K562 cells highly expressing integrin αvβ3
# T2 construct: expressed in transfected cells; host or cells: K562 myeloid leukemia cells (αvβ3-K562), provided by Dr. Yoshikazu Takada
# Protocol: as §1, §5
# as §2, with “The samples were washed three times with DPBS containing 1% FBS and incubated with 2 μg/ml of streptavidin-phycoerythrin on ice for 30 minutes and then washed with DPBS.” left out
# [9] = test system: EGFR; assay: mRNA level of EGFR on EPCs; assay type: cell-based; details: EPCs treated with LXW7
# Protocol: FIG. 15 presents graphs of mRNA levels of VEGFR-2 (A) and EGFR (B) on EPCs after treating with different concentrations of LXW7 for 48 h. *P<0.05 vs. Control, #P<0.05 vs. 25 nM (n=10 per group).
# [10] = test system: HMVECs; assay: flow cytometry ligand-cell binding, HMVECs; set-up: species or system human; details: biotinylated ligand 1 μM, streptavidin-phycoerythrin
# Protocol: as §1, §2
# T2 sequence (P06756 31-889 limits assumed): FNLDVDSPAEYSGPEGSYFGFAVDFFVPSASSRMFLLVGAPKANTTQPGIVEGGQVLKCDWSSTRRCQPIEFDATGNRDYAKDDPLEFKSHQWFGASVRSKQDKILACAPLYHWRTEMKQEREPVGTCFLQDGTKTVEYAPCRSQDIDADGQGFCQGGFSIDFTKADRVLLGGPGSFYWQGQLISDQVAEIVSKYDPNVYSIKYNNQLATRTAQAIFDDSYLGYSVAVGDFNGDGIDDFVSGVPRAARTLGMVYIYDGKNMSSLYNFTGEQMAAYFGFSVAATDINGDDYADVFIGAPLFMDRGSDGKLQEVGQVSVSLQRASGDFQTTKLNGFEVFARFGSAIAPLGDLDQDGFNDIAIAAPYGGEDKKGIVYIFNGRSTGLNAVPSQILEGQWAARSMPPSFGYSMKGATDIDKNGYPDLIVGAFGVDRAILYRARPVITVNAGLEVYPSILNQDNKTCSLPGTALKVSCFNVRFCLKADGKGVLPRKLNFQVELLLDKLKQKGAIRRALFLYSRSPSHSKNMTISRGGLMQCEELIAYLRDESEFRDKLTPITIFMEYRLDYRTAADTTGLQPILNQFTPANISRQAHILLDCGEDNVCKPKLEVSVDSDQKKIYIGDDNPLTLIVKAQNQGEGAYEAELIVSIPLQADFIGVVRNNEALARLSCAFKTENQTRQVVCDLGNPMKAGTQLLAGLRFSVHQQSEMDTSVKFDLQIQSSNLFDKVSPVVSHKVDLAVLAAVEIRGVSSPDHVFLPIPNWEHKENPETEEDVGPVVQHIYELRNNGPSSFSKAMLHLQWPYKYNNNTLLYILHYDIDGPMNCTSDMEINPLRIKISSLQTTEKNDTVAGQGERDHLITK
# T2 sequence (P06756 891-1048 partner limits assumed): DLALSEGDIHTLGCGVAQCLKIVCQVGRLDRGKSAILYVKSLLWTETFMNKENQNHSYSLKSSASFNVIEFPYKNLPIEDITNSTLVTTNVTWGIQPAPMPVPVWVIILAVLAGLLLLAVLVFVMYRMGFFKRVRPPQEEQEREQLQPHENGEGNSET
# T2 sequence (P05106 27-788): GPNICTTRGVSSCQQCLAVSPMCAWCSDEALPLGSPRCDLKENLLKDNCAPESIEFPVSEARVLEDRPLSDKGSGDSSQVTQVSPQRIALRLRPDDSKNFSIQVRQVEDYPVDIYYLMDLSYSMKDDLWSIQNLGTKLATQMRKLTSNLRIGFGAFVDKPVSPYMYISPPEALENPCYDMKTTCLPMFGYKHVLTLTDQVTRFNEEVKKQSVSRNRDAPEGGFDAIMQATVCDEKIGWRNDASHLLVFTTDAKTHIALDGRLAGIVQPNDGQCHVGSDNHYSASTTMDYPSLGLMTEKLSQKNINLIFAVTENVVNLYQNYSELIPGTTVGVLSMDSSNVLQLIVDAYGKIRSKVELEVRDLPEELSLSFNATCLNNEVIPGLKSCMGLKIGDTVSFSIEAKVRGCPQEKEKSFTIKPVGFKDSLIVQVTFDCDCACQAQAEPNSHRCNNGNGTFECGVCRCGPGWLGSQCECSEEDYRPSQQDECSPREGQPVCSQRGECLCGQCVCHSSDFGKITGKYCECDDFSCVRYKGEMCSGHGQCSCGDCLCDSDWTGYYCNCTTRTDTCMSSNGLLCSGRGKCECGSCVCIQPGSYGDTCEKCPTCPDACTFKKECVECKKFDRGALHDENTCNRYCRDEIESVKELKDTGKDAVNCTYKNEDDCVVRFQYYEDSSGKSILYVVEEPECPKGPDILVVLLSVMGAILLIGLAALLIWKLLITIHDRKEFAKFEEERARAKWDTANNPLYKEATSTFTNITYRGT
substance,measurement,setting,value
cGRGDdvc [LXW7],binding affinity to HCAECs by flow cytometry,[1],higher binding affinity with different types of EPCs/ECs than conventional GRGD peptide
same,attachment of HMVECs to beads displaying LXW7,[2],efficiently supported attachment of EPCs/ECs from different sources; also recorded: efficiently supported EPC/EC attachment
same,binding affinity to HECFCs by flow cytometry,[3],higher binding affinity with different types of EPCs/ECs than conventional GRGD peptide
same,binding to αIIbβ3-K562 cells by flow cytometry,[4],very low binding
same,binding affinity with platelets by flow cytometry,[5],very low binding affinity with platelets
same,EC proliferation on LXW7 treated surface (MTS),[6],significantly promoted EC proliferation after 48 hours in culture
same,attachment of THP-1 monocytes to beads displaying LXW7,[7],did not support effective attachment of THP-1 monocytes
same,binding affinity to αvβ3-K562 cells by flow cytometry,[8],higher binding affinity than GRGD
same,EGFR mRNA level,[9],increases in VEGFR2 and EGFR mRNA levels were found to be dependent on treatment time
same,binding affinity to HMVECs by flow cytometry,[10],higher binding affinity with different types of EPCs/ECs than conventional GRGD peptide
